Data reported in patent publication US20250188044A1 (HARBIN MEDISAN PHARMACEUTICAL CO., LTD., priority 2021, published 2025).
“Also recorded” adds a separate entry of the source.

How the values were obtained:
[1] = tested on: nonalcoholic steatohepatitis (NASH); details: NCT02704403; cited from earlier work
[2] = tested on: nuclear receptors other than PPAR (RARα, RARγ, RARβ, FXR, RXRα, RXRγ, RXRβ, VDR, LXRα, LXRβ, THβ, PXR, CAR); test: Nuclear receptor selectivity, Gal4-LBD reporter gene assays in Cos-7 cells; assay type: cell-based, human; details: 1 μM, relative agonistic rate (FIG. 16)
[3] = tested on: NASH model mice; test: CDAA-induced NASH mouse model; assay type: in vivo, C57 mice
[4] = tested on: HepG2 cells; test: Lipid metabolism-associated gene expression of HepG2 cells (qPCR); assay type: cell-based, human; details: 8 nM, nM, and 200 nM, 12 h, vs. blank control (FIGS. 1 and 2)
Experimental: HepG2 cells (human hepatoma cells) were cultured in a 6-well cell culture plate and subjected to adherent culture overnight. […] The old medium was discarded and replaced with drug-containing medium of different concentrations (complete medium without the compound for the blank control group). After dosing, the cells were incubated for 12 h. The medium was discarded and total RNA was extracted by the phenol-chloroform method. After reverse transcription, the real-time quantitative fluorescent PCR experiment (RNA extraction, reverse transcription, quantitative PCR reagents were all purchased from Nanjing Vazyme Biotech Co., Ltd.) was performed using ACTB as an internal reference, and the expression of PDK4, ACADVL, and CPT1A, which are important genes in oxidative metabolism of lipids, was detected according to the steps in the product instructions (the primer sequences are shown in Table 7). […] Some other compounds of the present invention also have similar activity.

[5] = tested on: PPARα/δ downstream target gene; details: mice, 10 mg/kg intragastric, four consecutive days (FIG. 15)
[6] = Metabolic stability in human liver microsomes; assay type: in vitro ADME
Experimental: A 500 μM solution of the compound in acetonitrile was prepared and diluted to obtain a 1.5 μM drug working solution with a 0.1 M potassium phosphate solution. The drug working solution was co-incubated with a human liver microsome working solution at a final concentration of 0.75 mg/mL and an NADPH solution (final concentration: 550 μM), and the incubation was terminated by adding an acetonitrile solution at 0 min, 15 min, 30 min, 45 min, and 60 min. The residual amount of the compound that remained in the system at each time point was detected by using LC/MS. The absolute value k of the slope was determined by plotting the natural logarithm of the percentage of the residual amount of the compound with the time, and the calculation was performed according to the formula: T1/2 (half-life)=ln2/k=0.693/k.

[7] = Pharmacokinetic evaluation in rats; assay type: in vivo, SD rats
Experimental: Animals: 6 male SD rats, SPF grade, sourced from the animal repository of Shanghai Medicilon research institution.
The dose in the oral administration group was 10 mpk, and the dose in the intravenous injection group was 2 mpk.
All samples were centrifuged at 18,000 g for 7 min in a low-temperature centrifuge, and plasma was isolated. The content of the compound in the plasma was determined by LC-MS/MS-18, and relevant pharmacokinetic parameters were calculated from the plasma concentration data at different time points.

[8] = tested on: liver fibrosis model mice; test: Carbon tetrachloride-induced liver fibrosis mouse model; assay type: in vivo, C57 mice
Experimental: Animals: 60 male C57 mice, SPF grade, 8 weeks old, weighing about 20 g, purchased from Beijing Vital River Laboratory Animal Technology Co., Ltd. All animals were kept on a 12-h alternating circadian rhythm and were fed ad libitum.
Reagent: positive drug IVA337 (Pan-PPAR agonist, currently in an anti-NASH phase II clinical trial), which was prepared according to the method in the literature (J. Med. Chem., 2018, 61, 2246); carbon tetrachloride (purchased from Shanghai Aladdin Biochemical Technology Co., Ltd.), and sunflower seed oil (purchased from Shanghai Yuanye Biotech Co., Ltd.).
. Mice were given food and water normally and subjected to modeling for 3 weeks. The model group and the administration groups were each injected twice a week with a 25% CCl4 oil solution at a dose of 2 mL/kg, and the control group was injected with an oil solvent at the same volume.
. The administration was performed for 3 weeks, and the mice were given food and water normally. The mice in each group were weighed daily, and their body weight, hair, feces, and activity were carefully observed and recorded.
At 30 h after the sixth injection of CCl4, the mice were dissected for the samples. Blood was taken from the orbit, and then the liver was taken after the mice were sacrificed. The right lobular tissue of liver was fixed with 4% paraformaldehyde and used for HE staining of sections.
The pretreated tissues were sent to ServiceBio Biotechnology Co., Ltd. to make HE stained sections and Sirius red stained sections.
The liver tissue stored at −80° C. was taken out and placed in liquid nitrogen, about 10 mg of liver tissue was rapidly cut off, homogenized with a homogenizer after about 500 μL of precooled tissue lysis buffer was added, and then lysed on ice for 30 min. The lysate was centrifuged at 12,000 rpm for 15 min at 4° C., and 170 μL of supernatant was added to a clean EP tube, from which 10 μL of supernatant was taken for BCA protein quantification. 40 μL of 5*loading buffer was added to the rest of protein supernatant for boiling for denaturation, followed by SDS-PAGE electrophoresis, and the protein was transferred onto a PVDF membrane for incubation and elution of related antibodies. Finally, imaging analysis was performed by using a chemiluminescence apparatus.
The liver tissue stored at −80° C. was taken out and placed in liquid nitrogen, about 200 mg of the liver tissue was rapidly cut off, and hydroxyproline in the liver tissue was detected according to the method in the product instructions (Beijing Solarbio Science & Technology Co., Ltd., BC0255).

CSc1ccc(C(=O)/C=C/c2cc(C)c(OC(C)(C)C(=O)O)c(C)c2)cc1 [GFT505, Elafibranor]
efficacy in anti-NASH phase III clinical trial, interim analysis [1]: substantially ineffective

Cc1cc(Cn2ncn(-c3ccc(OC(F)(F)F)cc3)c2=O)cc(C)c1OC(C)(C)C(=O)O [Compound 61, 2-(2,6-Dimethyl-4-((5-oxo-4-(4-(trifluoromethoxy)phenyl)-4,5-dihydro-1H-1,2,4-triazo 1-1-yl)methyl)phenoxy)-2-methylpropionic acid]
agonistic effect on nuclear receptors other than PPAR [2]: no significant agonistic effect on nuclear receptors other than PPAR | anti-NASH efficacy compared with GFT505 and IVA337 at the same dose ([3]; NASH model mice, 10 mg/kg intragastric daily, 6 weeks, 10 mg/kg): stronger liver enzyme-lowering effect than GFT505 and IVA337 at the same dose; also recorded: stronger effect in resisting liver inflammation than GFT505 and IVA337; also recorded: stronger effect in resisting liver fibrosis than GFT505 and IVA337; also recorded: better effect than GFT505 and IVA337 at the same dose; also recorded: better efficacy than positive control drugs GFT505 and IVA337 at the same dose; also recorded: better anti-NASH efficacy than clinically investigational PPAR agonists GFT505 and IVA337 at the same dose | liver mRNA expression levels of Tnf, IIIb, Ccl4, and Adgre1 ([3]; NASH model mice, 3, 10, 30 mg/kg intragastric daily, 6 weeks (FIG. 6)): inhibit the increase of mRNA expression levels of Tnf, IIIb, Ccl4, and Adgre1 due to modeling in a dose-dependent manner | liver mRNA expression levels of Acta2, Tgfb1, Collal, and Col3a1 ([3]; NASH model mice, 3, 10, 30 mg/kg intragastric daily, 6 weeks (FIG. 7)): significantly inhibit the increase of mRNA expression levels of Acta2, Tgfb1, Collal, and Col3a1 due to modeling | levels of ALT and AST in serum ([3]; NASH model mice, 3, 10, 30 mg/kg intragastric daily, 6 weeks (FIGS. 4 and 5)): down-regulate the levels of ALT and AST in serum of NASH model mice in a dose-dependent manner | HE staining: infiltration of inflammatory cells in the portal area ([3]; NASH model mice, liver sections (FIG. 8)): reduce the infiltration of inflammatory cells in the portal area due to modeling in a dose-dependent manner | Sirius red staining: collagen deposition ([3]; NASH model mice, liver sections (FIG. 9)): reduce collagen deposition due to modeling in a dose-dependent manner | Oil red staining: lipid accumulation ([3]; NASH model mice, liver sections (FIG. 10)): reduce lipid accumulation due to modeling in a dose-dependent manner | expression of PDK4, ACADVL, and CPT1A [4]: improve the expression of PDK4, ACADVL, and CPT1A in a dose-dependent manner with significance | target genes significantly upregulated in the skeletal muscle [5]: 16 | metabolic stability in human liver microsomes (in words) ([6]; human liver microsomes): very good metabolic stability in human liver microsomes | half-life ([6]; human liver microsomes 0.75 mg/mL, NADPH, 0-60 min): > 2 h | Time-to-peak Tmax ([7]; intravenous injection, 2 mpk): 0.08 ± 0.00 h | Bioavailability F ([7]; oral administration, 10 mpk): 86.35% | Time-to-peak Tmax ([7]; oral administration, 10 mpk): 1.42 ± 1.01 h | anti-liver fibrosis efficacy compared with IVA337 at the same dose ([8]; CCl4 liver fibrosis model mice, 10 mg/kg intragastric daily, 3 weeks, 10 mg/kg): stronger effect than IVA337 at the same dose; also recorded: better effect than IVA337 at the same dose; also recorded: better efficacy than a positive control drug IVA337 at the same dose | hepatic hydroxyproline level ([8]; CCl4 liver fibrosis model mice, 3, 10, 30 mg/kg intragastric daily, 3 weeks (FIG. 11)): down-regulate the hepatic hydroxyproline level of liver fibrosis model mice in a dose-dependent manner | αSMA and Collal protein levels in liver ([8]; CCl4 liver fibrosis model mice, Western blot (FIG. 12)): inhibit the increase of αSMA and Collal protein levels due to modeling in a dose-dependent manner | HE staining: infiltration of inflammatory cells in the portal area ([8]; CCl4 liver fibrosis model mice, liver sections (FIG. 13)): reduce the infiltration of inflammatory cells in the portal area due to modeling in a dose-dependent manner | Sirius red staining: collagen deposition ([8]; CCl4 liver fibrosis model mice, liver sections (FIG. 14)): reduce collagen deposition due to modeling in a dose-dependent manner
